Measurements as given in patent US6153589A, “2,3-epoxy alcohols, acids and derivatives as anti retroviral chemotherapeutic agents” (The United States of America as represented by the …, priority 1992, dated 2000).
Like-named read-outs stand apart in the source and are kept apart here.

What was measured:
HIV-2 protease = test: HIV protease cleavage of nonapeptide (HPLC); assay type: biochemical; conditions: 0.5 μl of 10 μg/μl inhibitor in DMSO per 10 μl reaction; pH 6.5, room temperature; pentapeptide product relative to DMSO control; sampled at ca. 16 and 40 hr (time not given)
Description: Activity Against HIV Protease
The assay for proteolyic activity is a modified version of that previously described by Copeland et al., Gene Anal. Tech., 5:109-115 (1988). For each assay to be performed 2 microliters of protease solution (ca. 100 ng) is added to 3 μg of nonapeptide (Val-Ser-Gln-Asn-Tyr-Pro-Ile-Val-Gln-NH2) in 8 μl of 200 mM sodium phosphate, 1 M NaCl, 5% glycerol, 0.25% Nonidet-40, at pH 6.5. This affords a stock solution containing 10 μl per number of reactions. This stock is aliquoted out in 10 μl portions to which 0.5 μl of DMSO (a control is run with each set of assays to compensate for minor experimental variations) or a DMSO solution containing 10 μg/μl of an inhibitor, i.e., any one of the compounds of the present invention, is added. The reactions were incubated at room temperature and 4 μl portions were removed at ca. 16 and 40 hr. intervals. HPLC analysis was performed on a 4.6×250 mm Lichrosorb RP-18 column eluted with a gradient of 0-40% acetonitrile in water (containing 0.05% TFA) over 30 min monitoring absorbance at 206 nm. Progress of the enzymatic cleavage was followed by monitoring the appearance of the pentapeptide (Val-Ser-Gln-Asn-Tyr-OH) cleavage product. The activity is expressed as the amount of the pentapeptide (Val-Ser-Gln-Asn-Tyr-OH) observed relative to the control reaction for that set of assays.
Inhibition of HIV-2 protease

porcine Renin = target: T1, porcine Renin (Sus scrofa, UniProt A0A287APG1); test: Porcine Renin cleavage of porcine tetradecapeptide (HPLC); assay type: biochemical; conditions: 0.5 μl of 50 μg/μl inhibitor in DMSO in 50 μl; pH 6.00, room temperature, 70 min; relative to uninhibited control
T1 construct: purchased Sigma
Description: Renin Activity: Porcine Renin Cleavage of Porcine Tetradecapeptide
Proteolytic enzymes are ubiquitous in many living systems. Renin is an asparxyl protease found in mammals which is responsible for the regulation of blood pressure. Structural and functional similarities between Renin and retroviral proteases have been previously noted (Pearl, L. H., Taylor, W. R., (1987) Nature, 329, 351-354). Consequently, successful therapeutic inhibition of retroviral proteases depends on the ability of the inhibitor to inhibit the retroviral enzyme while having a greatly diminished effect on normally occurring enzymes like Renin. The failure to inhibit the desired enzyme selectively may have an adverse effect on normal biochemical functions. The similarity of Renin to retroviral proteases and its viral normal bodily function makes it an attractive system in which to examine inhibitory selectivity.
Renin activity was determined by a method similar to that described above for the HIV protease. A solution containing 0.37 m unit (0.5 μl of stock solution containing 0.75 m unit/μl) of porcine Renin (Sigma) was added to 5 μg of porcine angiotensinogen in 50 μl of 0.1 M citrate-phosphate buffer (pH 6.00) containing 0.25% NP-40. A DMSO solution containing the inhibitor (0.5 μl of a 50 μg/μl solution) was added and the reaction was allowed to incubate at room temperature for 70 min. The entire mixture was analyzed by HPLC chromatographic analysis was perforemd on a 4.6×250 mm Lichrosorb RP-18 column eluting with a gradient of 0-50% acetonitrile in 0.02 M KH2 Po4 (pH 4.7) over 30 min monitoring absorbance at 206 nm. Appearance of both the tetrapeptide and the decapeptide products may be monitored under these conditions. Enzyme activity is expressed as the amount of tetrapeptide produced relative to an uninhibited control, and are summarized in Table 3 below.

HIV1 IIIb = test: microbe, parasite or virus in culture; assay type: cell-based; conditions: Human immunodeficiency virus 1, IIIB; for viability at 10 µg/mL: 10 ug/ml; for viability at 23 µg/mL: 23 ug/ml; for viability at 11.5 µg/mL: 11.5 ug/ml; for viability at 31.9 µg/mL: 31.9 ug/ml; for viability at 3.9 µg/mL: 3.9 ug/ml; for viability at 1 µg/mL: 1 ug/ml; for viability at 6.3 µg/mL: 6.3 ug/ml; for viability at 31.5 µg/mL: 31.5 ug/ml; for viability at 24.6 µg/mL: 24.6 ug/ml; for viability at 27.2 µg/mL: 27.2 ug/ml
Outline: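 Human host cells infected with HIV1 IIIb (virus-producing H9 cells or cell-free virus) and incubated seven days with compound. Viable cells measured by XTT formazan absorbance; response expressed as % of uninfected controls against virus kill %. Some cultures redosed after 3 days.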

[1] = 168 h, read-out: Antiviral Effect (viable cells as % of uninfected controls), run 15*, source V (cell free virus), virus kill 25.0%, culture redosed with compound after 3 days

T1 sequence (A0A287APG1 24-407): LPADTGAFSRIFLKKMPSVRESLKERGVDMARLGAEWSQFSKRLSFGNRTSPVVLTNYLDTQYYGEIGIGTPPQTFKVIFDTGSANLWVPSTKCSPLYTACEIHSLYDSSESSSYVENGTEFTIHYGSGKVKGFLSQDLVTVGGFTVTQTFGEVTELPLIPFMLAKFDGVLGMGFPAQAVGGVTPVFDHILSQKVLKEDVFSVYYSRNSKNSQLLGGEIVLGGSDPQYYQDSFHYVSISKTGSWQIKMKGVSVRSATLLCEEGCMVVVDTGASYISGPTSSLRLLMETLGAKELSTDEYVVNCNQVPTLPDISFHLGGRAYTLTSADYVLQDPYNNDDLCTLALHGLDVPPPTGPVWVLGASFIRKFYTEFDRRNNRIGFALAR

O=[N+]([O-])c1ccc(OCC2CO2)cc1 (centres unmarked) [1,2-Epoxy-3-(p-nitrophenoxy)propane, reference compound]
Percent Control Cleavage of Nonapeptide HIV-1 Cleavage Site Fragment (HIV-2 protease): 18% | Percent control (tetrapeptide produced) (porcine Renin): 106%

CCCCCCCCC[C@H]1O[C@H]1CO [Example 11, (2S-cis)-3-Nonyloxirane Methanol]
Percent Control Cleavage of Nonapeptide HIV-1 Cleavage Site Fragment (HIV-2 protease): 85% | viability at 10 µg/mL (HIV1 IIIb; 168 h, read-out: Antiviral Effect (viable cells as % of uninfected controls), run 8, source V (cell free virus), virus kill 25.0%): 110% | viability at 23 µg/mL (HIV1 IIIb; 168 h, read-out: Antiviral Effect (viable cells as % of uninfected controls), run 9, source V (cell free virus), virus kill 23.0%): 30% | viability at 11.5 µg/mL (HIV1 IIIb; 168 h, read-out: Antiviral Effect (viable cells as % of uninfected controls), run 10, source V (cell free virus), virus kill 49.0%): 68.5% | viability at 31.9 µg/mL (HIV1 IIIb; 168 h, read-out: Antiviral Effect (viable cells as % of uninfected controls), run 11, source V (cell free virus), virus kill 53.0%): 65.1% | viability at 11.5 µg/mL (HIV1 IIIb; 168 h, read-out: Antiviral Effect (viable cells as % of uninfected controls), run 12, source V (cell free virus), virus kill 30.0%): 80.4% | viability at 31.9 µg/mL (HIV1 IIIb; 168 h, read-out: Antiviral Effect (viable cells as % of uninfected controls), run 13, source V (cell free virus), virus kill 22.0%): 82.6% | viability at 3.9 µg/mL (HIV1 IIIb; 168 h, read-out: Antiviral Effect (viable cells as % of uninfected controls), run 14, source V (cell free virus), virus kill 20.0%): 21.5% | viability at 3.9 µg/mL (HIV1 IIIb; [1]): 32.4% | viability at 10 µg/mL (HIV1 IIIb; H9, 168 h, read-out: Antiviral Effect (viable cells as % of uninfected controls), run 1, source C (virus producing H9 cells), virus kill 6.0%): 60.2% | viability at 1 µg/mL (HIV1 IIIb; H9, 168 h, read-out: Antiviral Effect (viable cells as % of uninfected controls), run 2, source C (virus producing H9 cells), virus kill 25.0%): 37.5% | viability at 23 µg/mL (HIV1 IIIb; H9, 168 h, read-out: Antiviral Effect (viable cells as % of uninfected controls), run 3, source C (virus producing H9 cells), virus kill 14.0%): 19.9% | viability at 11.5 µg/mL (HIV1 IIIb; H9, 168 h, read-out: Antiviral Effect (viable cells as % of uninfected controls), run 4, source C (virus producing H9 cells), virus kill 12.5%): 18.1% | viability at 31.9 µg/mL (HIV1 IIIb; H9, 168 h, read-out: Antiviral Effect (viable cells as % of uninfected controls), run 5, source C (virus producing H9 cells), virus kill 13.0%): 23.9% | viability at 11.5 µg/mL (HIV1 IIIb; H9, 168 h, read-out: Antiviral Effect (viable cells as % of uninfected controls), run 6, source C (virus producing H9 cells), virus kill 9.0%): 12.3% | viability at 31.9 µg/mL (HIV1 IIIb; H9, 168 h, read-out: Antiviral Effect (viable cells as % of uninfected controls), run 7, source C (virus producing H9 cells), virus kill 11.0%): 13% | Percent control (tetrapeptide produced) (porcine Renin): 106%

CCCCCCCCC[C@H]1O[C@H]1C(=O)O [Example 21, (2R-cis)-3-Nonyloxiranecarboxylic Acid]
viability at 10 µg/mL (HIV1 IIIb; 168 h, read-out: Antiviral Effect (viable cells as % of uninfected controls), run 8, source V (cell free virus), virus kill 23.0%): 94% | viability at 6.3 µg/mL (HIV1 IIIb; 168 h, read-out: Antiviral Effect (viable cells as % of uninfected controls), run 9, source V (cell free virus), virus kill 19.0%): 25.7% | viability at 31.5 µg/mL (HIV1 IIIb; 168 h, read-out: Antiviral Effect (viable cells as % of uninfected controls), run 10, source V (cell free virus), virus kill 53.0%): 75.3% | viability at 24.6 µg/mL (HIV1 IIIb; 168 h, read-out: Antiviral Effect (viable cells as % of uninfected controls), run 11, source V (cell free virus), virus kill 57.0%): 64.3% | viability at 31.5 µg/mL (HIV1 IIIb; 168 h, read-out: Antiviral Effect (viable cells as % of uninfected controls), run 12, source V (cell free virus), virus kill 27.0%): 62% | viability at 24.6 µg/mL (HIV1 IIIb; 168 h, read-out: Antiviral Effect (viable cells as % of uninfected controls), run 13, source V (cell free virus), virus kill 40.0%): 88% | viability at 27.2 µg/mL (HIV1 IIIb; 168 h, read-out: Antiviral Effect (viable cells as % of uninfected controls), run 14, source V (cell free virus), virus kill 18.0%): 25.7% | viability at 27.2 µg/mL (HIV1 IIIb; [1]): 28.1% | viability at 1 µg/mL (HIV1 IIIb; H9, 168 h, read-out: Antiviral Effect (viable cells as % of uninfected controls), run 1, source C (virus producing H9 cells), virus kill 9.0%): 18.9% | viability at 10 µg/mL (HIV1 IIIb; H9, 168 h, read-out: Antiviral Effect (viable cells as % of uninfected controls), run 2, source C (virus producing H9 cells), virus kill 22.0%): 27.3% | viability at 6.3 µg/mL (HIV1 IIIb; H9, 168 h, read-out: Antiviral Effect (viable cells as % of uninfected controls), run 3, source C (virus producing H9 cells), virus kill 12.0%): 16.6% | viability at 31.5 µg/mL (HIV1 IIIb; H9, 168 h, read-out: Antiviral Effect (viable cells as % of uninfected controls), run 4, source C (virus producing H9 cells), virus kill 14.0%): 19.6% | viability at 24.6 µg/mL (HIV1 IIIb; H9, 168 h, read-out: Antiviral Effect (viable cells as % of uninfected controls), run 5, source C (virus producing H9 cells), virus kill 14.0%): 21.6% | viability at 31.5 µg/mL (HIV1 IIIb; H9, 168 h, read-out: Antiviral Effect (viable cells as % of uninfected controls), run 6, source C (virus producing H9 cells), virus kill 12.0%): 10.7% | viability at 24.6 µg/mL (HIV1 IIIb; H9, 168 h, read-out: Antiviral Effect (viable cells as % of uninfected controls), run 7, source C (virus producing H9 cells), virus kill 18.0%): 13% | Percent control (tetrapeptide produced) (porcine Renin): 86%

CCCCCCCCC[C@@H]1O[C@H]1C(=O)O [Example 35, (2R-trans)-3-Nonyloxiranecarboxylic Acid]
Percent Control Cleavage of Nonapeptide HIV-1 Cleavage Site Fragment (HIV-2 protease): 77% | Percent control (tetrapeptide produced) (porcine Renin): 72%

CCCCCCCCC[C@H]1O[C@@H]1C(=O)O [Example 36, (2S-trans)-3-Nonyloxiranecarboxylic acid]
Percent Control Cleavage of Nonapeptide HIV-1 Cleavage Site Fragment (HIV-2 protease): 12% | Percent control (tetrapeptide produced) (porcine Renin): 12%

CCCCCCCCCCC[C@H]1O[C@@H]1C(=O)O [Example 40, (2S-trans)-3-Undecyloxiranecarboxylic Acid]
Percent Control Cleavage of Nonapeptide HIV-1 Cleavage Site Fragment (HIV-2 protease): 93% | Percent control (tetrapeptide produced) (porcine Renin): 71%
